# Reference: US20250122218A1, “MODULATORS OF CYSTIC FIBROSIS TRANSMEMBRANE CONDUCTANCE REGULATOR” (Vertex Pharmaceuticals Incorporated, priority 2022, published 2025)
# Target: T1, CFTR in F508del/MF-HBE cells (Homo sapiens, UniProt P13569, DEL508-508)
# T1 construct: human bronchial epithelial (HBE) cells derived from CF subjects heterozygous for F508del and a minimal function CFTR mutation; endogenous in cells; host or cells: primary human bronchial epithelial cells from CF subjects (F508del/MF-HBE)
# T1 sequence (P13569 with tags, fused parts or gaps DEL508-508): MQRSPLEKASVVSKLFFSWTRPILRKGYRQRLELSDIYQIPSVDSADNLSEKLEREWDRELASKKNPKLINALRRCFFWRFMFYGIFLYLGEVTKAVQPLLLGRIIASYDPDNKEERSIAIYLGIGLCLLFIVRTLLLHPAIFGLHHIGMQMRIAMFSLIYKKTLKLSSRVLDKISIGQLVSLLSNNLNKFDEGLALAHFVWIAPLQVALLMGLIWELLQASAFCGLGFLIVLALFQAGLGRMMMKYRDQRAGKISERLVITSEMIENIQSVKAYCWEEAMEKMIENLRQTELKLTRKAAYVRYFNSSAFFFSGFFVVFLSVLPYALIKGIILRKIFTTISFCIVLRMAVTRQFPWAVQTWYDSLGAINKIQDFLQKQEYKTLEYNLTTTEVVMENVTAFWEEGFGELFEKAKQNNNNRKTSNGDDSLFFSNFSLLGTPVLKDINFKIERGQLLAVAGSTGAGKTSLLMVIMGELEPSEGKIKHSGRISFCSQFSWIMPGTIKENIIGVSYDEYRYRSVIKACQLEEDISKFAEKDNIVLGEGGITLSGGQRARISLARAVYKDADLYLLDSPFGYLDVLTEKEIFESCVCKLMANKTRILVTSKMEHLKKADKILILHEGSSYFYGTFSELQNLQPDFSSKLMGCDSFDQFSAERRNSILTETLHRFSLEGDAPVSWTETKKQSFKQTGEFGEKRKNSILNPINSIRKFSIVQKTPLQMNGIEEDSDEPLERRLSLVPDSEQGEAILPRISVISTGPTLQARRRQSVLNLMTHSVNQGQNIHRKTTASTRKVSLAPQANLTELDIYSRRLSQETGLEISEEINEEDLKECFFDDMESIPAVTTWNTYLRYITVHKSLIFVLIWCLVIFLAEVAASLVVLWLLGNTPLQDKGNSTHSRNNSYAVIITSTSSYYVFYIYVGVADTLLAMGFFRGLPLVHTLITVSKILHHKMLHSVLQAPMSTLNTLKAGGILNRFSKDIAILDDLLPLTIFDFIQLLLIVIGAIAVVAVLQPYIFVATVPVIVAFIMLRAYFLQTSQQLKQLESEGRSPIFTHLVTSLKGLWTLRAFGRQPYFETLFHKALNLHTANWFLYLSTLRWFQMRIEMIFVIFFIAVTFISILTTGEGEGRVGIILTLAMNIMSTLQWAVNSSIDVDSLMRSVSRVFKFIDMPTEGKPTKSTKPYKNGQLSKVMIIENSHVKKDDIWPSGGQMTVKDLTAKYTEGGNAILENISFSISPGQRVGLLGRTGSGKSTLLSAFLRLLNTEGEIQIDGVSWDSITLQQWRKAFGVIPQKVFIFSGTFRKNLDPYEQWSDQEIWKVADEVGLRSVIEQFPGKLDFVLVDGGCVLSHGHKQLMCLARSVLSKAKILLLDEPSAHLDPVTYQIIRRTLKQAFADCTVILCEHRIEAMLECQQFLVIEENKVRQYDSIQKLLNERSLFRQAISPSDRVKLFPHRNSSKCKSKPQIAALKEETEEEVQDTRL
# Assay: Ussing chamber assay of CFTR-mediated short-circuit currents (identification of potentiator compounds)
# Format: cell-based
# Conditions: potentiator incubated 18-24 hours at 37° C. in combination with 10 μM corrector, in the presence of 20% human serum, CFTR-mediated ISC
# Procedure: Ussing chamber experiments were performed using human bronchial epithelial (HBE) cells derived from CF subjects heterozygous for F508del and a minimal function CFTR mutation (F508del/MF-HBE) and cultured as previously described (Neuberger T, Burton B, Clark H, Van Goor F; Methods Mol. Biol. 2011:741:39-54). After four days the apical media was removed, and the cells were grown at an air liquid interface for >14 days prior to use.
# To isolate the CFTR-mediated short-circuit (ISC) current, F508del/MF-HBE grown on Costar® Snapwell™ cell culture inserts were mounted in an Ussing chamber and the transepithelial ISC was measured under voltage-clamp recording conditions (Vhold=0 mV) at 37° C. The basolateral solution contained (in mM) 145 NaCl, 0.83 K2HPO4, 3.3 KH2PO4, 1.2 MgCl2, 1.2 CaCl2), 10 Glucose, 10 HEPES (pH adjusted to 7.4 with NaOH) and the apical solution contained (in mM) 145 NaGluconate, 1.2 MgCl2, 1.2 CaCl2), 10 glucose, 10 HEPES (pH adjusted to 7.4 with NaOH) and 30 μM amiloride to block the epithelial sodium channel. Forskolin (20 μM) was added to the apical surface to activate CFTR, followed by apical addition of a CFTR inhibitor cocktail consisting of BPO, GlyH-101 and CFTR inhibitor 172 (each at 20 μM final assay concentration) to specifically isolate CFTR currents. The CFTR-mediated ISC (μA/cm^2) for each condition was determined from the peak forskolin response to the steady-state current following inhibition.
# The activity of the CFTR potentiator compounds on the CFTR-mediated ISC was determined in Ussing chamber studies as described above. The F508del/MF-HBE cell cultures were incubated with the potentiator compounds at a range of concentrations in combination with 10 μM (14S)-8-[3-(2-{dispiro[2.0.2.1]heptan-7-yl}ethoxy)-1H-pyrazol-1-yl]-12,12-dimethyl-2λ^6-thia-3,9,11,18,23-pentaazatetracyclo[17.3.1.111,14.05,10]tetracosa-1(22),5,7,9,19(23),20-hexaene-2,2,4-trione for 18-24 hours at 37° C. and in the presence of 20% human serum. The concentration of potentiator compounds and (14S)-8-[3-(2-{dispiro[2.0.2.1]heptan-7-yl}ethoxy)-1H-pyrazol-1-yl]-12,12-dimethyl-2λ^6-thia-3,9,11,18,23-pentaazatetracyclo[17.3.1.111,14.05,10]tetracosa-1(22),5,7,9,19(23),20-hexaene-2,2,4-trione used during the 18-24 hours incubations was kept constant throughout the Ussing chamber measurement of the CFTR-mediated ISC to ensure compounds were present throughout the entire experiment. The efficacy and potency of the putative F508del potentiators was compared to that of the known potentiator, ivacaftor (N-[2,4-bis(1,1-dimethylethyl)-5-hydroxyphenyl]-1,4-dihydro-4-oxoquinoline-3-carboxamide).
row,EC50,Compound
1,< 0.5 µM,"17-amino-12-[(3- cyclobutyl-5-fluoro- phenyl)methyl]-6- hydroxy-6,15- bis(trifluoromethyl)- 8,19-dioxa-3,4,12,18- tetrazatricyclo [12.3.1.12,5] nonadeca- 1(18),2,4,14,16- pentaen-13-one [Compound 263]"
2,< 0.5 µM,"17-amino-12-[(3-tert- butylphenyl)methyl]- 6-hydroxy-6,15- bis(trifluoromethyl)- 8,19-dioxa-3,4,12,18- tetrazatricyclo [12.3.1.12,5] nonadeca- 1(18),2,4,14,16- pentaen-13-one [Compound 261]"
3,< 0.5 µM,"Nc1cc(C(F)(F)F)c2nc1-c1nnc(o1)[C@@](O)(C(F)(F)F)CCCCCN(CC1CCCCO1)C2=O (mixture of isomers) [Compound 130, (6R)-17-amino-6-hydroxy-12-(tetrahydropyran-2-ylmethyl)-6,15-bis (trifluoromethyl)-19-oxa-3,4,12,18-tetrazatricyclo [12.3.1.12,5] nonadeca-1(18),2,4,14,1 6-pentaen-13-one]"
4,< 0.5 µM,"Nc1cc(C(F)(F)F)c2nc1-c1nnc(o1)[C@@](O)(C(F)(F)F)CCCCCN(CC1CCCOC1)C2=O (mixture of isomers) [Compound 131, (6R)-17-Amino-6-hydroxy-12-(tetrahydropyran-3-ylmethyl)-6,15-bis (trifluoromethyl)-19-oxa-3,4,12,18-tetrazatricyclo [12.3.1.12,5] nonadeca-1(18),2,4,14,1 6-pentaen-13-one]"
5,< 0.5 µM,"Nc1cc(C(F)(F)F)c2nc1-c1nnc(o1)[C@@](O)(C(F)(F)F)CCCCCN(C1CCCOC1)C2=O (mixture of isomers) [Compound 133, (6R)-17-Amino-6-hydroxy-12-tetrahydropyran-3-yl-6,15-bis (trifluoromethyl)-19-oxa-3,4,12,18-tetrazatricyclo [12.3.1.12,5] nonadeca-1(18),2,4,14,1 6-pentaen-13-one]"
6,< 0.5 µM,"Nc1cc(C(F)(F)F)c2nc1-c1nnc(o1)C(O)(C(F)(F)F)c1cc(ccc1F)CCCN(C1CC(F)(F)C1)C2=O (racemic) [Compound 201, 20-amino-15-(3,3-difluorocyclobutyl)-8-fluoro-6-hydroxy-6,18-bis(trifluoromethyl)-23-oxa-3,4,15,21-tetraazatetracyclo [15.3.1.12,5.17,11] tricosa 1(21),2,4,7(22),8,10, 17,19-octaen-16-one]"
7,< 0.5 µM,"Nc1cc(C(F)(F)F)c2nc1-c1nnc(o1)C(O)(C(F)(F)F)CCCCCCC2 (single isomer, unassigned) [Compound 2, 17-amino-6,15-bis(trifluoromethyl)-19-oxa-3,4,18-triazatricyclo[12.3.1.12,5]nonadeca-1(18),2,4,14,16-pentaen-6-ol]"
8,< 0.5 µM,"Nc1cc(C(F)(F)F)c2nc1-c1nnc(o1)C(O)(C(F)(F)F)CCCCCc1ccccc1-2 (single isomer, unassigned) [Compound 4, 21-amino-6,19-bis(trifluoromethyl)-23-oxa-3,4,22-triazatetracyclo[16.3.1.12,5.012,17]tricosa-1(22),2,4,12,14,16,18,20-octaen-6-ol]"
9,> 1 µM,"Nc1cc(C(F)(F)F)c2nc1-c1nnc(o1)C(O)(C(F)(F)F)CCCCCc1ccccc1-2 (single isomer, unassigned) [Compound 5, 21-amino-6,19-bis(trifluoromethyl)-23-oxa-3,4,22-triazatetracyclo[16.3.1.12,5.012,17]tricosa-1(22),2,4,12,14,16,18,20-octaen-6-ol]"
10,> 1 µM,"Nc1cc(C(F)(F)F)c2nc1-c1nnc(o1)[C@](O)(C(F)(F)F)CCCCCCC2=O (single isomer, unassigned) [Compound 7]"
11,< 0.5 µM,"Nc1cc(C(F)(F)F)c2nc1-c1nnc(o1)C(O)(C(F)(F)F)CCCCCCC2O (single isomer, unassigned) [Compound 8, 17-amino-6,15-bis(trifluoromethyl)-19-oxa-3,4,18-triazatricyclo[12.3.1.12,5]nonadeca-1(18),2,4,14,16-pentaene-6,13-diol]"
12,> 1 µM,"Nc1cc(C(F)(F)F)c2nc1-c1nnc(o1)C(O)(C(F)(F)F)CCCCCCC2O (single isomer, unassigned) [Compound 9, 17-amino-6,15-bis(trifluoromethyl)-19-oxa-3,4,18-triazatricyclo[12.3.1.12,5]nonadeca-1(18),2,4,14,16-pentaene-6,13-diol]"
13,< 0.5 µM,"Nc1cc(C(F)(F)F)c2nc1-c1nnc(o1)C(O)(C(F)(F)F)CCCCCCC2O (single isomer, unassigned) [Compound 10, 17-amino-6,15-bis(trifluoromethyl)-19-oxa-3,4,18-triazatricyclo[12.3.1.12,5]nonadeca-1(18),2,4,14,16-pentaene-6,13-diol]"
14,> 1 µM,"Nc1cc(C(F)(F)F)c2nc1-c1nnc(o1)C(O)(C(F)(F)F)CCCCCCC2O (single isomer, unassigned) [Compound 11, 17-amino-6,15-bis(trifluoromethyl)-19-oxa-3,4,18-triazatricyclo[12.3.1.12,5]nonadeca-1(18),2,4,14,16-pentaene-6,13-diol]"
15,< 0.5 µM,"COC1CCCCCCC(O)(C(F)(F)F)C2=NN=C(O2)c2nc1c(C(F)(F)F)cc2N (single isomer, unassigned) [Compound 12, 17-Amino-13-methoxy-6,15-bis(trifluoromethyl)-19-oxa-3,4,18-triazatricyclo[12.3.1.12,5]nonadeca-1(18),2,4,14,16-pentaen-6-ol]"
16,< 0.5 µM,"COC1CCCCCCC(O)(C(F)(F)F)C2=NN=C(O2)c2nc1c(C(F)(F)F)cc2N (single isomer, unassigned) [Compound 13, 17-amino-13-methoxy-6,15-bis(trifluoromethyl)-19-oxa-3,4,18-triazatricyclo[12.3.1.12,5]nonadeca-1(18),2,4,14,16-pentaen-6-ol]"
17,< 0.5 µM,"COC1CCCCCCC(O)(C(F)(F)F)C2=NN=C(O2)c2nc1c(C(F)(F)F)cc2N (single isomer, unassigned) [Compound 14, 17-Amino-13-methoxy-6,15-bis(trifluoromethyl)-19-oxa-3,4,18-triazatricyclo[12.3.1.12,5]nonadeca-1(18),2,4,14,16-pentaen-6-ol]"
18,0.5 to 1 µM,"COC1CCCCCCC(O)(C(F)(F)F)C2=NN=C(O2)c2nc1c(C(F)(F)F)cc2N (single isomer, unassigned) [Compound 15, 17-amino-13-methoxy-6,15-bis(trifluoromethyl)-19-oxa-3,4,18-triazatricyclo[12.3.1.12,5]nonadeca-1(18),2,4,14,16-pentaen-6-ol]"
19,< 0.5 µM,"CC1CCCCCCC(O)(C(F)(F)F)C2=NN=C(O2)c2nc1c(C(F)(F)F)cc2N (single isomer, unassigned) [Compound 16, 17-Amino-13-methyl-6,15-bis(trifluoromethyl)-19-oxa-3,4,18-triazatricyclo[12.3.1.12,5]nonadeca-1(18),2,4,14,16-pentaen-6-ol]"
20,< 0.5 µM,"CC1CCCCCCC(O)(C(F)(F)F)C2=NN=C(O2)c2nc1c(C(F)(F)F)cc2N (single isomer, unassigned) [Compound 17, 17-amino-13-methyl-6,15-bis(trifluoromethyl)-19-oxa-3,4,18-triazatricyclo[12.3.1.12,5]nonadeca-1(18),2,4,14,16-pentaen-6-ol]"
21,< 0.5 µM,"CC1CCCCCCC(O)(C(F)(F)F)C2=NN=C(O2)c2nc1c(C(F)(F)F)cc2N (single isomer, unassigned) [Compound 18, 17-amino-13-methyl-6,15-bis(trifluoromethyl)-19-oxa-3,4,18-triazatricyclo[12.3.1.12,5]nonadeca-1(18),2,4,14,16-pentaen-6-ol]"
22,< 0.5 µM,"CC1CCCCCCC(O)(C(F)(F)F)C2=NN=C(O2)c2nc1c(C(F)(F)F)cc2N (single isomer, unassigned) [Compound 19, 17-amino-13-methyl-6,15-bis(trifluoromethyl)-19-oxa-3,4,18-triazatricyclo[12.3.1.12,5]nonadeca-1(18),2,4,14,16-pentaen-6-ol]"
